According to PMC4492757 (Pharmacology Research & Perspectives, 2015):

Assays:
Format in all cases: cell-based
hFFA2 [1] = molecular target: T1, hFFA2 (Homo sapiens, UniProt O15552); assay: LANCE cAMP assay, U2OS cells
T1 sequence (O15552 1-330): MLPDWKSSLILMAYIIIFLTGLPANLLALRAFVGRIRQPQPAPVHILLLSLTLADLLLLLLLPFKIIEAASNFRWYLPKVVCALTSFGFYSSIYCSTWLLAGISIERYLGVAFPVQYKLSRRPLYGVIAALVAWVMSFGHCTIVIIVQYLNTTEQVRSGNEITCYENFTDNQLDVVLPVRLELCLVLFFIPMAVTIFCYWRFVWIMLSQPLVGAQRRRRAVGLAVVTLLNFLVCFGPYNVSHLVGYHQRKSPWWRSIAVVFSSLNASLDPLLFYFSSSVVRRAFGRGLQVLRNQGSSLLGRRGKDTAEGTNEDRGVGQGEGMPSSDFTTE

hFFA2 [2] = molecular target: T1, hFFA2; assay: yeast reporter assay, antagonism
hFFA2 [3] = molecular target: T1, hFFA2; assay: yeast reporter assay, operational model fit
hFFA2 [4] = molecular target: T1, hFFA2; assay: yeast FUS1-HIS3 reporter growth assay

Structure (SMILES): CC(=O)O [C2, acetate]
- EC50 (hFFA2 [1]): 126000 nM

Structure (SMILES): O=C(N[C@@H](Cc1c[nH]c2ccccc12)C(=O)O)c1ccc(Cl)cc1 [N-CBT, N-(4-Chlorobenzoyl)-L-tryptophan]
- Kb (hFFA2 [2]): 501 nM

Structure (SMILES): O=C(O)C[C@H](C(=O)Nc1nc(-c2ccccc2Cl)cs1)c1ccccc1 [compound 9, (S)-4-(4-(2-chlorophenyl)thiazol-2-ylamino)-4-oxo-3-phenylbutanoic acid]
- Kd (hFFA2 [3]): 155 nM

Structure (SMILES): CN(C(=O)[C@H]1CCCC[C@H]1C(=O)O)c1nc(-c2ccccc2Cl)cs1 [compound 101, cis-2-((4-(2-chlorophenyl)thiazol-2-yl)(methyl)carbamoyl)cyclohexaneccarboxylic acid]
- IC50 (hFFA2 [4]): 186 nM
